Values after ≈ are worked out from the molar mass of the structure shown.
Legend:
Bacteroides fragilis = experiment: Antibacterial activity against Bacteroides fragilis ATCC 25285 assessed as inhibition of bacterial growth by CLSI based agar dilution susceptibility analysis; format: functional
Clostridioides difficile [1] = experiment: Antibacterial activity against Clostridioides difficile assessed as inhibition of bacterial growth by CLSI based agar dilution susceptibility analysis; format: functional
[2] = Selectivity ratio of MIC for Bacteroides fragilis ATCC 25285 to MIC for Clostridioides difficile; format: functional
Clostridioides difficile [3] = experiment: Antibacterial activity against Clostridioides difficile SM8-6865 in CDAD golden hamster model assessed as log reduction in cecum bacterial content at 6.25 mg/kg, po administered twice daily for 4 days; format: functional; settings: time 4 day
Clostridioides difficile [4] = experiment: Antibacterial activity against Clostridioides difficile SM8-6865 in CDAD golden hamster model assessed as protection from lethal infection at 6.25 mg/kg, po administered twice daily for 4 days; format: functional; settings: time 4 day
[5] = Drug concentration in golden hamster caecum at 6.25 mg/kg, po measured after 1 hr by LC-MS/MS analysis; format: ADME, organism-based, Mesocricetus auratus; settings: read-out: Ct
Clostridioides difficile [6] = experiment: Antibacterial activity against Clostridioides difficile SM8-6865 in CDAD golden hamster model assessed as protection from lethal infection at 0.39 o 1.56 mg/kg, po administered twice daily for 4 days; format: functional; settings: time 4 day
[7] = Drug concentration in golden hamster caecum at 6.25 mg/kg, po measured after 24 hrs by LC-MS/MS analysis; format: ADME, organism-based, Mesocricetus auratus; settings: read-out: Ct
Clostridioides difficile [8] = experiment: Antibacterial activity against Clostridioides difficile SM8-6865 in CDAD golden hamster model assessed as log reduction in cecum bacterial content at 1.56 mg/kg, po administered twice daily for 4 days; format: functional; settings: time 4 day
Clostridioides difficile [9] = experiment: Antibacterial activity against Clostridioides difficile SM8-6865 in CDAD golden hamster model assessed as protection from lethal infection at 1.56 mg/kg, po administered twice daily for 4 days; format: functional; settings: time 4 day
Clostridioides difficile [10] = experiment: Antibacterial activity against Clostridioides difficile assessed as inhibition of bacterial growth incubated for 18 to 24 hrs by broth microdilution method; format: functional; settings: time 18-24 hrs
Clostridioides difficile [11] = experiment: Antibacterial activity against Clostridioides difficile SM8-6865 in CDAD golden hamster model assessed as log reduction in cecum bacterial content at 1.56 mg/kg, po administered once daily for 4 days; format: functional; settings: time 4 day
Clostridioides difficile [12] = experiment: Antibacterial activity against Clostridioides difficile SM8-6865 in CDAD golden hamster model assessed as protection from lethal infection at 1.56 mg/kg, po administered once daily for 4 days; format: functional; settings: time 4 day
[13] = Toxicity in Clostridioides difficile SM8-6865 infected golden hamster model assessed as survival at 1.56 mg/kg, po administered once daily for 4 days; format: organism-based, Mesocricetus auratus; settings: in vivo, 96 h, time 4 day

Row | Compound | MIC (Bacteroides fragilis) [µg/mL] | MIC50 (Clostridioides difficile [1]) [µg/mL] | Selectivity ratio [2] | further results
1 | CO/C(C)=C1/NC(=O)[C@H]([C@@H](C)O)NC(=O)c2csc(n2)-c2cc(OC)c(-c3nc(C(=O)NCCCN4CCOCC4)cs3)nc2-c2csc(n2)[C@@H]2COC(=O)c3c4c5c(cccc5n3O)COC(=O)[C@@H](O[C@H]3C[C@](C)(O)[C@H](N(C)C)[C@H](C)O3)[C@@H](OC4)[C@H](NC(=O)c3csc1n3)c1nc(cs1)C(=O)N2 | 4 (≈ 2.65 µM) | ≤ 0.015 | 100 | 
2 | CO/C(C)=C1/NC(=O)[C@H]([C@@H](C)O)NC(=O)c2csc(n2)-c2cc(O)c(-c3nc(C(=O)NCCCN4CCOCC4)cs3)nc2-c2csc(n2)[C@@H]2COC(=O)c3c4c5c(cccc5n3O)COC(=O)[C@@H](O[C@H]3C[C@](C)(O)[C@H](N(C)C)[C@H](C)O3)[C@@H](OC4)[C@H](NC(=O)c3csc1n3)c1nc(cs1)C(=O)N2 | 4 (≈ 2.67 µM) | 0.03 (≈ 0.0201 µM) | 100 | Activity (Clostridioides difficile [3]): >5 log10CFU/g; Activity (Clostridioides difficile [4]): 100%; concentration at 1 h [5]: 6560 nM; Activity (Clostridioides difficile [6]): 16%; concentration at 24 h [7]: 80 nM
3 | CCc1c(Cl)c(O)c(Cl)c(O)c1C(=O)O[C@H]1[C@H](O)[C@H](OC)[C@H](OC/C2=C\C=C\C[C@H](O)/C(C)=C/[C@H](CC)[C@@H](O[C@@H]3OC(C)(C)[C@@H](OC(=O)C(C)C)[C@H](O)[C@@H]3O)/C(C)=C/C(C)=C/C[C@@H]([C@@H](C)O)OC2=O)O[C@@H]1C [FIDAXOMICIN] | > 16 | 0.5 (≈ 0.473 µM) |  | 
4 | Cc1ncc([N+](=O)[O-])n1CCO [METRONIDAZOLE] | > 16 | ≤ 0.015 |  | 
5 | C=C(NC(=O)c1csc(-c2nc3c(cc2O)-c2nc(cs2)C(=O)N[C@@H]([C@@H](C)O)C(=O)N/C(=C(\C)OC)c2nc(cs2)C(=O)N[C@@H]2c4nc(cs4)C(=O)N[C@@H](COC(=O)c4c5c6c(cccc6n4O)COC(=O)[C@@H](O[C@H]4C[C@](C)(O)[C@H](N(C)C)[C@H](C)O4)[C@H]2OC5)c2nc-3cs2)n1)C(N)=O [MJ347-81F4 A] | 4 (≈ 2.78 µM) | 0.03 (≈ 0.0209 µM) | 100 | Activity (Clostridioides difficile [3]): >5 log10CFU/g; Activity (Clostridioides difficile [8]): 4 log10CFU/g; Activity (Clostridioides difficile [9]): 66%; Activity (Clostridioides difficile [4]): 100%; concentration at 1 h [5]: 5400 nM; concentration at 24 h [7]: 190 nM; MIC (Clostridioides difficile [10]): 0.06 µg/mL (≈ 0.0417 µM)
6 | C=C(NC(=O)c1csc(-c2nc3c(cc2O)-c2nc(cs2)C(=O)N[C@@H]([C@@H](C)O)C(=O)N/C(=C(\C)OC)c2nc(cs2)C(=O)N[C@@H]2c4nc(cs4)C(=O)N[C@@H](COC(=O)c4c5c6c(cccc6n4O)COC(=O)[C@@H](O[C@H]4C[C@]6(C)OCN(C)[C@@H]6[C@H](C)O4)[C@H]2OC5)c2nc-3cs2)n1)C(N)=O [THIAZOMYCIN] | 8 (≈ 5.57 µM) | 0.06 (≈ 0.0418 µM) | 100 | 
7 | CN[C@H](CC(C)C)C(=O)N[C@H]1C(=O)N[C@@H](CC(N)=O)C(=O)N[C@H]2C(=O)N[C@H]3C(=O)N[C@H](C(=O)N[C@H](C(=O)O)c4cc(O)cc(O)c4-c4cc3ccc4O)[C@H](O)c3ccc(c(Cl)c3)Oc3cc2cc(c3O[C@@H]2O[C@H](CO)[C@@H](O)[C@H](O)[C@H]2O[C@H]2C[C@](C)(N)[C@H](O)[C@H](C)O2)Oc2ccc(cc2Cl)[C@H]1O [VANCOMYCIN] | 0.5 (≈ 0.345 µM) | 0.25 (≈ 0.173 µM) |  | Activity (Clostridioides difficile [11]): >5 log10CFU/g; Activity (Clostridioides difficile [12]): 100%; Activity [13]: Non-Toxic

— ChEMBL document CHEMBL5120811, “Nocathiacin, Thiazomycin, and Polar Analogs Are Highly Effective Agents against Toxigenic Clostridioides difficile” (J Nat Prod, 2022)
